Experimental findings from patent publication US7319090B2, “Methods of treating cerebral ischemia” (University of North Carolina at Chapel Hill, priority 2002, dated 2008) are described below.

Where a SMILES comes first, the peptide text is derived from it. Where no end group is shown, it is not given here. [ ]: non-standard residue; d: D form. Ala(indol-4-yl) = N[C@@H](Cc1cccc2[nH]ccc12)C(=O)O; NMeR = CN[C@@H](CCCNC(=N)N)C(=O)O; Tle = CC(C)(C)[C@H](N)C(=O)O; dOrn = NCCC[C@@H](N)C(=O)O; neo‑Trp = not defined here

Holding throughout (type): in vivo, rat
Data set [1] deals with Sprague-Dawley rats resuscitated from asphyxial cardiac arrest. Nature of the data set: Neurological deficit score 14 days after ROSC (NT69L). As for the experimental part:
A final neurological deficit score (NDS) was performed 14 days after ROSC by an evaluator blinded to the insult and therapeutic intervention. Rats were tested for coordination (balance beam walk placing test, depth perception, righting reflex) and for motor and sensory function as described in Katz et al., Outcome model of asphyxial cardiac arrest in rats, J. Cereb. Blood Flow Metab., 1995, 15:1032-1039. The NDS includes a range from 0 (indicating normal) to 100 (indicating brain dead).
(§1) Physiological variables (arterial blood gas, glucose, and MAP) between groups were compared by a one-way analysis of variance (ANOVA). All values were reported as means±standard deviation unless otherwise stated. A one-way analysis of variance (ANOVA) was used to determine the between-group differences in latency time for finding the platform during the MWM on day 14. When an overall significant difference was found, a Tukey post-hoc analysis was used to determine specific between-group differences. Performances on the MWM (learning curve) between days 10 and 14 were compared between groups by a repeated measure ANOVA. Neurological deficit scores between groups were assessed by Kruskal-Wallis analysis. For all analyses, alpha was set at a p<0.05 level of significance.

Data set [2] has the same test system. Nature of the data set: Morris Water Maze on days 10-14 after ROSC (NT69L). How it is done:
On days 10-14 after ROSC, the rats were accessed for performance in a Morris Water Maze (MWM). Evaluation was begun on day 10 to ensure that there was complete recovery from anesthesia and the surgical procedures based on prior pilot studies (data not shown). A six foot diameter round pool was filled with water (26° C.) to a depth of 20 cm, 1 cm above an 11-cm diameter clear glass escape platform. The escape platform was invisible to a swimming rat and was placed in the northeast quadrant of the pool. The pool had large visible and distinct geometric shapes placed in a north, south, east, and west distribution on the side of the pool wall so that a swimming rat could easily visualize the orientation markers. The pool was situated in a room with black walls and ceiling to minimize external distractions for the rats. Rats were initially placed in the pool (without the escape platform) for 2 minutes to become acclimatized to the new swimming environment. The rats were then placed on the escape platform for 30 seconds to allow for self orientation in the pool. Next, the rats were randomly placed in each of the four geographic outer regions of the pool and their travel path, swim speed, and time required to locate the hidden platform (latency time) were recorded. Rats performed four swim trials on each day with a maximum swim time of 2 minutes, at which time the trial was terminated if a rat was unable to locate the platform. A 3-minute rest period was provided between trials. In addition to the rats that sustained cardiac arrest (n=16), nine sham rats were surgically instrumented and allowed to recover for ten days before being assessed for performance in the MWM.
as §1

The test system of data set [3] is free-roaming, unanesthetized rats. Nature of the data set: Pilot: brain temperature of free-roaming unanesthetized rats without cardiac arrest given NT69L. The settings on record: no cardiac arrest, room temperature 23° C., i.v. How it is done: In separate pilot experiments, four rats were instrumented for placement of temperature probes and intravenous catheters as described above. Three days after recovery from anesthesia, NT69L was administered intravenously to two free-roaming, unanesthetized rats at room temperature (23° C.). In the same environment and at the same time, two rats were given a similar volume of saline for comparison.

In data set [4] the test system is Sprague-Dawley rats resuscitated from asphyxial cardiac arrest.
Source text: Sixteen male Sprague-Dawley rats (Harlan; Madison, Wis.) weighing 300±50 grams were randomized to a control group (saline) or treatment group (NT69L) after resuscitation from asphyxial cardiac arrest. The outcome model of asphyxial cardiac arrest in rats was used to induce the cerebral insult in all rats (Katz et al., Outcome model of asphyxial cardiac arrest in rats, J. Cereb. Blood Flow Metab., 1995, 15:1032-1039). Under titrated inhaled isoflurane anesthesia, brain telemetric probes (Mini-Mitter; Sunriver, Oreg.) were implanted three days before the cerebral insult. […] On the day of the cerebral insult, rats were again anesthetized with inhaled isoflurane anesthesia, intubated, and mechanically ventilated. A tail artery was cannulated for continuous blood pressure monitoring and blood gas analysis, while the jugular vein was cannulated for intravenous drug administration. Intravenous vecuronium (2 mg/kg intravenous) and cessation of mechanical ventilation were used to induce apneic asphyxia. Asphyxia led to cardiac arrest (i.e., mean arterial pressure (MAP)<10 mm Hg and a pulse pressure of 0 mm Hg) within approximately 3 minutes; the cardiac arrest was maintained until resuscitation. Eight minutes after asphyxia, the rats were resuscitated with mechanical ventilation (100% oxygen), 0.005 mg/kg intravenous epinephrine, and chest compressions until a mean arterial pressure of 60 mm Hg was produced and maintained by a spontaneously beating heart for more than 10 seconds. Immediately after restoration of spontaneous circulation (ROSC), the rats were placed in an incubator that maintained an ambient temperature of 31.6° C. […] Ten minutes after ROSC, NT69L (0.5 mg/kg) […] or saline 3 mL/kg was administered intravenously. The ventilator was adjusted to normalize temperature-corrected arterial carbon dioxide before the insult and for two hours after ROSC. Two hours after ROSC, spontaneously breathing rats were extubated and maintained in the incubator for 24 hours. Rats were handled daily after the experiment and had free access to food and water.
as §1

Data set [5] has as its system Sprague-Dawley rats. Nature of the data set: Behavioral thermoregulation in a temperature gradient (selected Ta, core temperature, motor activity) after NT77. How it is done:
Male rats of the Sprague-Dawley strain at 60 days of age were obtained from Charles River Laboratories (Raleigh, N.C.). The animals were housed individually in acrylic cages lined with wood shavings at an ambient temperature (Ta) of 22° C., relative humidity of 50%, and a 12 hour light:12 hour dark photoperiod (lights were turned on at 6 a.m. and turned off at 6 p.m.). Core temperature and motor activity were monitored in undisturbed rats using radio telemetry (Data Sciences International, St. Paul, Minn.). Details of the telemetry system are described in Gordon, C. J., 24-hour control of body temperature in the rat: I. Integration of behavioral and autonomic effectors, Am. J. Physiol. 267, […]-[…], 1994. Briefly, rats were anesthetized with sodium pentobarbital (50 mg/kg; intraperitoneally) and an incision was made for the implantation of the transmitter (TAIOTA-F40) into the abdominal cavity. The abdominal muscle was sutured and the skin was closed with wound clips. […] The behavioral thermoregulatory response to NT77 was assessed by measuring selected ambient temperature (Selected Ta) of the unrestrained rats when housed in a temperature gradient (Gordon, C. J., 24-hour control of body temperature in the rat: I. Integration of behavioral and autonomic effectors, Am. J. Physiol. 267, […]-[…], 1994). Rats were placed in a temperature gradient and allowed to behaviorally select from a range of ambient temperatures (Ta) while core temperature (Tc) was monitored by radiotelemetry. Selected Ta, core temperature (Tc), and motor activity were monitored at 1 minute intervals. […] Selected Ta was measured by photocells positioned at 10 cm intervals that detected the position of the rat in the gradient and automatically compared the position to the air temperature measured by thermocouples placed immediately outside the wire-mesh cage. Motor activity was calculated by measuring the change in position of the rat in the gradient at 1 minute intervals. […] The behavioral and core temperature data were recorded at 1 minute intervals throughout the experiment. […]

Data set [6] concerns Sprague-Dawley rats. Nature of the data set: Metabolism and heat loss in a direct calorimeter after NT77. The settings on record: 5.0 mg/kg i.p.; data not shown. As for the experimental part: Oxygen consumption and dry heat loss were measured in naive rats implanted with radiotransmitters and housed in a direct calorimeter. The internal dimensions of the calorimeter were 30.5 cm×30.5 cm×30.5 cm. The calorimeter was used to measure the rate of dry heat loss (i.e., thermal conductance) from the rats using thermoelectric sensors in the calorimeter walls. The calorimeter was housed inside a temperature-controlled chamber maintained at 23.5° C. The inside of the calorimeter was dimly illuminated with LED lights (total power=0.2 Watts). […]
A mass flow controller was used to meter dry air at a constant flow rate (2.7 liters/minute; STP) into the calorimeter. […] Percent oxygen, dry heat loss, air flow rate, and calorimeter temperature were monitored at 1 minute intervals by a data acquisition system (Dianachart PC acquisitor). […] (W/C) was calculated by dividing the value of dry heat loss at 1 minute intervals by the difference between core and ambient temperature. […]
A naive rat was placed in the wire-mesh cage which was then placed inside the calorimeter at approximately 9 a.m. […] After 115 minutes, the percent oxygen of the inflowing air was measured for another 5 minutes for calibration purposes but the rat was not disturbed. […]

[7] abbreviates: intravenously after resuscitation from cardiac arrest.
Setting [8] is: one NT69L group rat, day 14 after resuscitation.
The mark [9] stands for this setting: NT69L 0.5 mg/kg i.v., ambient 31.6° C.

Turning to “NT69L: neurotensin analog, SEQ ID NO: 16, positions 8-13: N-methyl-Arg, L-Lys, L-Pro, L-neo-Trp, tert-Leu, L-Leu ([NMeR]KP[neo‑Trp][Tle]L; reading uncertain)”, the “neurological deficit score (NDS)” value in data set [1] (14 days after ROSC, 0 normal to 100 brain dead, control 30±10) worked out at 3±3. In addition, the “neurological outcome (conclusion)” value in data set [1] (setting [7]) was “improved neurological outcome”. Besides, the “latency time in Morris Water Maze” value in data set [2] (fourteen days after ROSC, control 45±26, sham 10±3) was determined as 22 ± 8 s. In data set [2] (setting [8]), the “distance traveled, sample path of one rat (FIG. 1)” value was 225 cm and the “latency time, sample path of one rat (FIG. 1)” value worked out at 9 s. Moreover, the “rates of change of latency time over days 10-14 versus control” value in data set [2] (p=0.15 repeated-measures ANOVA) is on record as “no difference”. Moreover, in data set [2] (sham 27±2, control 25±1), the “swimming speed during MWM testing” value came out at 26 ± 1 cm/s. In addition, the “brain temperature versus saline rats” value in data set [3] is listed as “drop in brain temperature”. Besides, in data set [4] (NT69L 0.5 mg/kg i.v.), the “duration of mild hypothermia (mean)” value turned out to be 300 ± 100 min, the “duration of mild hypothermia (median)” value was 367 min and the “duration of mild hypothermia (range)” value was 20 to 400 min. Moreover, in data set [4] (setting [9]), the “time until brain temperature dropped below 35° C. after administration (mean)” value is 13+3 minutes and the “time until brain temperature dropped below 35° C. after administration (range)” value lay within 8 to 15 min. In addition, the “rats with ROSC that survived 14 days” value in data set [4] (each group, same as control) is recorded as “Seven out of eight”. In data set [4] (setting [7]), the “hypothermia produced (conclusion)” value is “rapid and prolonged mild hypothermia”. Further, the hypotension produced result in data set [4] (rat, in vivo) is “mild and transient”.
For the compound `CC(C)C[C@H](NC(=O)[C@@H](NC(=O)[C@H](Cc1cccc2[nH]ccc12)NC(=O)[C@@H]1CCCN1C(=O)[C@@H](CCCN)NC(=O)[C@@H](N)CCCNC(=N)N)C(C)(C)C)C(=O)O` [NT77] (H-R[dOrn]P[Ala(indol-4-yl)][Tle]L-OH), the “effect on motor activity” value in data set [5] (5.0 mg/kg i.p., temperature gradient) is “no effect”. In addition, in data set [5] (5.0 mg/kg i.p., data not shown), the “core temperatures and selected Ta's during the night after treatment” value is “normal”. Moreover, the “loss of initial body weight” value in data set [5] (day after treatment, saline 1.6%) was found to be 2.4%. The “effect on motor activity in the calorimeter” value in data set [6] is reported as “no discernable effect”.
